The values below come from BindingDB's records for doi:10.1021/cb400371r (University of Konstanz, 2013).

Test [1] has as its target T1, Fucose-binding lectin PA-IIL (Pseudomonas aeruginosa (strain ATCC 15692 / DSM 22644 / CIP 104116 / JCM 14847 / LMG 12228 / 1C / PRS 101 / PAO1), UniProt Q9HYN5).
For test [2], the target named is T1, Fucose-binding lectin PA-IIL. This is another data set of the same source.

T1 sequence (Q9HYN5 whole entry): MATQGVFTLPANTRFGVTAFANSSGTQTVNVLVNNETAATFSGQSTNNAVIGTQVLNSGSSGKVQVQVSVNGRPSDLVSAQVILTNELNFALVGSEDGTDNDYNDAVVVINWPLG

`CC1O[C@@H](OCCNC(=S)Nc2ccc(-c3c4ccc(=O)cc-4oc4cc(O)ccc34)c(C(=O)O)c2)[C@@H](O)C(O)[C@@H]1O` (some centres not stated) [LecB Inhibitor Ligand 6] came in with a concentration giving a half-maximal response (EC50) in test [1] of 0.697 µM. In addition, in test [2], the IC50 was 2.74 µM. The compound `COC1O[C@H](CNC(=O)c2ccc([N+](=O)O)cc2)[C@@H](O)C(O)[C@@H]1O` (some centres not stated) [LecB Inhibitor Amides 4c] displayed a concentration for half-maximal inhibition (IC50) in test [2] of 75.8 µM. On the same count and under the same terms, the result for `COC1O[C@H](CNCc2ccc(Cl)cc2)[C@@H](O)C(O)[C@@H]1O` (some centres not stated) [LecB Inhibitor Amines 3d] reads 212 µM.

`COC1O[C@H](CNC(=O)C(c2ccccc2)c2ccccc2)[C@@H](O)C(O)[C@@H]1O` (some centres not stated) [LecB Inhibitor Amides 4f]: the half-inhibitory concentration (IC50) in test [2] was determined as 161 µM. On the same count and under the same terms, the figure for `COC1O[C@H](CNCc2ccc(C#N)cc2)[C@@H](O)C(O)[C@@H]1O` (some centres not stated) [LecB Inhibitor Amines 3c] is 115 µM; for `COC1O[C@H](Cn2cc(-c3ccc(C)cc3)nn2)[C@@H](O)C(O)[C@@H]1O` (some centres not stated) [LecB Inhibitor Triazoles 2e] it is 294 µM; for `COC1O[C@H](Cn2cc(-c3cccc(C)c3)nn2)[C@@H](O)C(O)[C@@H]1O` (some centres not stated) [LecB Inhibitor Triazoles 2d] it is 279 µM. Compound `COC1O[C@H](Cn2cc(-c3ccccc3)nn2)[C@@H](O)C(O)[C@@H]1O` (some centres not stated) [LecB Inhibitor Triazoles 2c] showed an IC50 in test [2] of 373 µM. In test [2], `COC1O[C@H](CNS(=O)(=O)c2ccc([N+](=O)O)cc2)[C@@H](O)C(O)[C@@H]1O` (some centres not stated) [LecB Inhibitor Sulfonamides 5d] displayed an IC50 of 36.1 µM. Regarding `COC1O[C@H](CNC(=O)Cc2ccccc2)[C@@H](O)C(O)[C@@H]1O` (some centres not stated) [LecB Inhibitor Amides 4e], the IC50 in test [2] is 73.8 µM.

`COC1O[C@H](Cn2cc(-c3ccc(F)cc3)nn2)[C@@H](O)C(O)[C@@H]1O` (some centres not stated) [LecB Inhibitor Triazoles 2g] showed an IC50 in test [2] of 240 µM. On to `COC1O[C@H](CNS(=O)(=O)c2ccc(Br)cc2)[C@@H](O)C(O)[C@@H]1O` (some centres not stated) [LecB Inhibitor Sulfonamides 5c], for which, in test [2], the half-maximal inhibitory concentration (IC50) came out at 20.9 µM. On the same count and under the same terms, the result for `COC1O[C@H](CNS(=O)(=O)/C=C/c2ccccc2)[C@@H](O)C(O)[C@@H]1O` (some centres not stated) [LecB Inhibitor Sulfonamides 5g] reads 86.9 µM; that for `COC1O[C@H](CNCc2ccc([N+](=O)O)cc2)[C@@H](O)C(O)[C@@H]1O` (some centres not stated) [LecB Inhibitor Amines 3b], 117 µM.

In test [2], `COC1O[C@H](Cn2cc(CO)nn2)[C@@H](O)C(O)[C@@H]1O` (some centres not stated) [LecB Inhibitor Triazoles 2a] yielded an IC50 of 578 µM.

For the compound `COC1O[C@H](CNC(C)=O)[C@@H](O)C(O)[C@@H]1O` (some centres not stated) [LecB Inhibitor Amides 4a], the half-maximal inhibitory concentration (IC50) in test [2] stood at 281 µM.

With `COC1O[C@H](Cn2cc(CCc3ccccc3)nn2)[C@@H](O)C(O)[C@@H]1O` (some centres not stated) [LecB Inhibitor Triazoles 2b], the IC50 in test [2] turned out to be 264 µM.

For the compound `COC1O[C@H](CNS(=O)(=O)c2ccc(C)cc2)[C@@H](O)C(O)[C@@H]1O` (some centres not stated) [LecB Inhibitor Sulfonamides 5b], the IC50 in test [2] turned out to be 49.7 µM. The same measure, in the same setting: the result for `COC1O[C@H](CNCc2ccccc2)[C@@H](O)C(O)[C@@H]1O` (some centres not stated) [LecB Inhibitor Amines 3a] reads 227 µM; that for `COC1O[C@H](CN)[C@@H](O)C(O)[C@@H]1O` (some centres not stated) [LecB Inhibitor Amines 3e], 353 µM. Same read-out and setting: the result for `COC1O[C@H](CNC(=O)c2cc([N+](=O)O)cc([N+](=O)O)c2)[C@@H](O)C(O)[C@@H]1O` (some centres not stated) [LecB Inhibitor Amides 4d] reads 121 µM.
